We go through 21 compounds from ChEMBL document CHEMBL4270545, “Design, synthesis and biological evaluation of 3-piperazinecarboxylate sarsasapogenin derivatives as potential multifunctional anti-Alzheimer agents” (2018).

Assay [1] has as its system PC-12. The assay is described as follows: Neuroprotective activity against H2O2-induced cytotoxicity in rat PC12 cells assessed as cell viability at 10 uM after 24 hrs by MTT assay relative to control. The note with it: for viability at 10 µM: PC-12, 24 h, read-out: Activity. In kind it is functional.
For assay [2], the system named is RAW264.7. In words: Antiinflammatory activity in mouse RAW264.7 cells assessed as inhibition of LPS-induced nitric oxide production at 10 uM preincubated for 30 mins followed by LPS addition measured after 20 hrs by Griess assay relative to control. In kind it is functional. A general note: Nitrite, measured by Griess reagent, commonly stands in for NO production.

Assay [3] relates to PC-12. The assay is described as follows: Neuroprotective activity against H2O2-induced cytotoxicity in rat PC12 cells assessed as cell viability at 1 mM after 24 hrs by MTT assay relative to control. The note with it: PC-12, 24 h, read-out: Activity. Type of assay: functional. A general note: Tetrazolium dyes change colour on reduction, which living cells bring about.
Assay [4] concerns PC-12. In words: Neuroprotective activity against amyloid beta (1 to 42)-induced cytotoxicity in rat PC12 cells assessed as cell viability at 10 uM after 48 hrs by MTT assay (reference value: 55.3 to 64.4%). Type of assay: functional. The note with it: PC-12, 48 h, read-out: Activity.
Assay [5] deals with Mus musculus. The assay is described as follows: Antialzheimer activity in cognitive deficit ICR mouse model assessed as reduction in amyloid beta (1 to 42)-induced spatial memory impairment at 6 mg/kg, ig qd administered for 7 consecutive days by Morris water maze test. Type of assay: functional, organism-based.
Assay [6] has as its system PC-12. In words: Neuroprotective activity against amyloid beta (1 to 42)-induced cytotoxicity in rat PC12 cells assessed as cell viability at 1 uM after 48 hrs by MTT assay (reference value: 55.3 to 64.4%). Type of assay: functional. The note with it: PC-12, 48 h, read-out: Activity.
For assay [7], the system named is PC-12. The assay is described as follows: Neuroprotective activity against amyloid beta (1 to 42)-induced cytotoxicity in rat PC12 cells assessed as cell viability at 30 uM after 48 hrs by MTT assay (reference value: 55.3 to 64.4%). The note with it: PC-12, 48 h, read-out: Activity. Type of assay: functional.

Calls of active or inactive are those of the source. The rule behind the calls is not given here.

For `C[C@H]1CC[C@@]2(OC1)O[C@H]1C[C@H]3[C@@H]4CC[C@@H]5C[C@@H](OC(=O)N6CCN(C(=O)c7ccc(N)cc7)CC6)CC[C@]5(C)[C@H]4CC[C@]3(C)[C@H]1[C@@H]2C`, the outcome in assay [1] was inactive.
What is called inhibition is the percentage by which the read-out fell short of the control. Turning to `C[C@H]1CC[C@@]2(OC1)O[C@H]1C[C@H]3[C@@H]4CC[C@@H]5C[C@@H](OC(=O)N6CCN(Cc7ccc(N(C)C)cc7)CC6)CC[C@]5(C)[C@H]4CC[C@]3(C)[C@H]1[C@@H]2C`, the inhibition at 10 µM in assay [2] came to 5.6%. Also, in assay [1], the viability at 10 µM is 22%.
As to `COc1ccc(CN2CCN(C(=O)O[C@H]3CC[C@@]4(C)[C@H](CC[C@@H]5[C@@H]4CC[C@]4(C)[C@@H]6[C@H](C[C@@H]54)O[C@]4(CC[C@H](C)CO4)[C@H]6C)C3)CC2)cc1`, in assay [2], the inhibition at 10 µM amounted to 1.3%. The viability at 10 µM in assay [1] worked out at 33.1%.
In the case of `CC(=O)N[C@@H](CS)C(=O)O` [ACETYLCYSTEINE], the viability at 1000 µM in assay [3] came to 35.3%.
For `C[C@H]1CC[C@@]2(OC1)O[C@H]1C[C@H]3[C@@H]4CC[C@@H]5C[C@@H](OC(=O)N6CCN(C(=O)c7ccc(Cl)cc7)CC6)CC[C@]5(C)[C@H]4CC[C@]3(C)[C@H]1[C@@H]2C`, the inhibition entry in assay [2] was “inactive”. Also, in assay [1], the viability at 10 µM is 20.2%.
On to `CCS(=O)(=O)N1CCN(C(=O)O[C@H]2CC[C@@]3(C)[C@H](CC[C@@H]4[C@@H]3CC[C@]3(C)[C@@H]5[C@H](C[C@@H]43)O[C@]3(CC[C@H](C)CO3)[C@H]5C)C2)CC1`, for which the viability at 10 µM in assay [1] was 6.8%.
For `C[C@H]1CC[C@@]2(OC1)O[C@H]1C[C@H]3[C@@H]4CC[C@@H]5C[C@@H](OC(=O)N6CCN(C(=O)c7ccccc7)CC6)CC[C@]5(C)[C@H]4CC[C@]3(C)[C@H]1[C@@H]2C`, the viability at 10 µM in assay [1] was 17.6%.
With `Cc1ccc(S(=O)(=O)N2CCN(C(=O)O[C@H]3CC[C@@]4(C)[C@H](CC[C@@H]5[C@@H]4CC[C@]4(C)[C@@H]6[C@H](C[C@@H]54)O[C@]4(CC[C@H](C)CO4)[C@H]6C)C3)CC2)cc1`, the inhibition at 10 µM in assay [2] amounted to 4.8%. The viability at 10 µM in assay [1] was 29.5%.
For `C[C@H]1CC[C@@]2(OC1)O[C@H]1C[C@H]3[C@@H]4CC[C@@H]5C[C@@H](OC(=O)N6CCN(Cc7ccccc7)CC6)CC[C@]5(C)[C@H]4CC[C@]3(C)[C@H]1[C@@H]2C`, the viability at 10 µM in assay [1] was found to be 18.7%.
Consider `C[C@H]1CC[C@@]2(OC1)O[C@H]1C[C@H]3[C@@H]4CC[C@@H]5C[C@@H](OC(=O)N6CCN(Cc7ccc(O)cc7)CC6)CC[C@]5(C)[C@H]4CC[C@]3(C)[C@H]1[C@@H]2C`, for which the viability at 10 µM in assay [1] amounted to 5.8%.
`Cc1ccc(CN2CCN(C(=O)O[C@H]3CC[C@@]4(C)[C@H](CC[C@@H]5[C@@H]4CC[C@]4(C)[C@@H]6[C@H](C[C@@H]54)O[C@]4(CC[C@H](C)CO4)[C@H]6C)C3)CC2)cc1`: the viability at 10 µM in assay [1] amounted to 19.2%.
For `COc1cc(CN2CCN(C(=O)O[C@H]3CC[C@@]4(C)[C@H](CC[C@@H]5[C@@H]4CC[C@]4(C)[C@@H]6[C@H](C[C@@H]54)O[C@]4(CC[C@H](C)CO4)[C@H]6C)C3)CC2)ccc1O`, the inhibition at 10 µM in assay [2] was determined as 24.4%. Besides, the viability at 10 µM amounted to 43.9% in assay [1] and 91.3% in assay [4]. For the same compound, the result in assay [5] was Active. In addition, the viability at 1 µM in assay [6] was 55.8%.
`C[C@H]1CC[C@@]2(OC1)O[C@H]1C[C@H]3[C@@H]4CC[C@@H]5C[C@@H](OC(=O)N6CCN(Cc7ccc(C#N)cc7)CC6)CC[C@]5(C)[C@H]4CC[C@]3(C)[C@H]1[C@@H]2C`: the inhibition at 10 µM in assay [2] is 21.6%. Further, the viability at 10 µM in assay [1] amounted to 26.4%.
As for `COc1ccc(C(=O)N2CCN(C(=O)O[C@H]3CC[C@@]4(C)[C@H](CC[C@@H]5[C@@H]4CC[C@]4(C)[C@@H]6[C@H](C[C@@H]54)O[C@]4(CC[C@H](C)CO4)[C@H]6C)C3)CC2)cc1`, the viability at 10 µM in assay [1] was found to be 17.7%.
Take `C[C@H]1CC[C@@]2(OC1)O[C@H]1C[C@H]3[C@@H]4CC[C@@H]5C[C@@H](OC(=O)N6CCN(Cc7ccccc7O)CC6)CC[C@]5(C)[C@H]4CC[C@]3(C)[C@H]1[C@@H]2C`: in assay [2], the inhibition at 10 µM was found to be 15.2%. The viability at 10 µM worked out at 36.6% in assay [1] and 95.3% in assay [4]. Moreover, in assay [6], the viability at 1 µM was determined as 59.3%.
As for `C[C@H]1CC[C@@]2(OC1)O[C@H]1C[C@H]3[C@@H]4CC[C@@H]5C[C@@H](OC(=O)N6CCN(Cc7ccc(F)cc7)CC6)CC[C@]5(C)[C@H]4CC[C@]3(C)[C@H]1[C@@H]2C`, the viability at 10 µM in assay [1] turned out to be 7.2%.
Take `C[C@H]1CC[C@@]2(OC1)O[C@H]1C[C@H]3[C@@H]4CC[C@@H]5C[C@@H](OC(=O)N6CCN(S(=O)(=O)c7ccc(F)cc7)CC6)CC[C@]5(C)[C@H]4CC[C@]3(C)[C@H]1[C@@H]2C`: in assay [1], the viability at 10 µM is 8.5%.
For `C[C@H]1CC[C@@]2(OC1)O[C@H]1C[C@H]3[C@@H]4CC[C@@H]5C[C@@H](OC(=O)N6CCN(S(=O)(=O)c7ccccc7)CC6)CC[C@]5(C)[C@H]4CC[C@]3(C)[C@H]1[C@@H]2C`, the inhibition result in assay [2] was “inactive”. For the same compound, in assay [1], the viability at 10 µM is 20.8%.
With `C[C@H]1CC[C@@]2(OC1)O[C@H]1C[C@H]3[C@@H]4CC[C@@H]5C[C@@H](OC(=O)N6CCNCC6)CC[C@]5(C)[C@H]4CC[C@]3(C)[C@H]1[C@@H]2C`, the viability at 10 µM in assay [1] amounted to 3.4%.
In the case of `C[C@H]1CC[C@@]2(OC1)O[C@H]1C[C@H]3[C@@H]4CC[C@@H]5C[C@@H](O)CC[C@]5(C)[C@H]4CC[C@]3(C)[C@H]1[C@@H]2C` [SARSASAPOGENIN], the viability at 10 µM was found to be 3.3% in assay [1] and 79.2% in assay [4]. Besides, the viability at 30 µM in assay [7] stood at 58.9%.
For `CCCN1CCN(C(=O)O[C@H]2CC[C@@]3(C)[C@H](CC[C@@H]4[C@@H]3CC[C@]3(C)[C@@H]5[C@H](C[C@@H]43)O[C@]3(CC[C@H](C)CO3)[C@H]5C)C2)CC1`, in assay [1], the viability at 10 µM is 18.9%.
